Measured values: article PMC8708032, “Fragment-Based Ligand Discovery Applied to the Mycolic Acid Methyltransferase Hma (MmaA4) from Mycobacterium tuberculosis: A Crystallographic and Molecular Modelling Study” (Pharmaceuticals, 2021)

Target: Hma (MmaA4) (Mycobacterium tuberculosis, UniProt Q79FX8)
Sequence (Q79FX8 4-301): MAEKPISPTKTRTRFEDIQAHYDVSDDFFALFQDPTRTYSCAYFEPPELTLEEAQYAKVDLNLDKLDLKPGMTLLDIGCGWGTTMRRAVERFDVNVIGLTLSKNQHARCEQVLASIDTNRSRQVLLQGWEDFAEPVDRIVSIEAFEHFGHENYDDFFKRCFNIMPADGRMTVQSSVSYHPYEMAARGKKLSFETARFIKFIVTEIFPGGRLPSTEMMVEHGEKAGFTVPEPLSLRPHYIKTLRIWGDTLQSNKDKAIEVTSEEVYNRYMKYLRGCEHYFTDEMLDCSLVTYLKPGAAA

O=Cc1ccc2cccc(O)c2n1 [ZT726]
X-ray crystallography, fragment soak, PanDDA: A second molecule of the ZT260 and ZT320 fragments is located at this position, as well as ZT726
